# According to patent US5422350A, “Nitrogen substituted acridine and cytochrome P450 inhibitors and methods of use” (priority 1992, dated 1995):
# Read-outs that look alike come from different tables or passages of the source.
# T1: P450 1A2 (Homo sapiens, UniProt P05177)
# T1 sequence (P05177 2-516 limits assumed): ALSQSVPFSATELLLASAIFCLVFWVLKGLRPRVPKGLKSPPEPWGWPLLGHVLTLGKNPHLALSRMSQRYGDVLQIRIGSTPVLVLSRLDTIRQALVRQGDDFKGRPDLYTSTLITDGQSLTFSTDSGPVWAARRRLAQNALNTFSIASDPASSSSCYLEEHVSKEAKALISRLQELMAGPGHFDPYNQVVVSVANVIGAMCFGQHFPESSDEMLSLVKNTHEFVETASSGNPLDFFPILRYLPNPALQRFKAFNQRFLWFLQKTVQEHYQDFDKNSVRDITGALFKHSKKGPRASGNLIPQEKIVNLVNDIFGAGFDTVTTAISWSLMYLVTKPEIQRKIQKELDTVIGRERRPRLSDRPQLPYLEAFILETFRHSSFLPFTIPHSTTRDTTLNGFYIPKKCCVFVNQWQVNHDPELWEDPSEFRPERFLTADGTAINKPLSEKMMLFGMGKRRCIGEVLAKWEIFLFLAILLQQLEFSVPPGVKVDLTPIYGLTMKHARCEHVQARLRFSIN
# Tests used:
# [1] = Single-dose pharmacokinetic and metabolic disposition study of [14C]tacrine HCl in human male volunteers; format: in vivo; details: for mean AUC(O-tldc), dose proportionality: 10 and 40 mg oral, plasma
# Procedure: Plasma and red blood cells (RBC) were collected predose and for 48 hours postdose. Urine and feces were collected predose and for 96 hours postdose. Urine and plasma samples were analyzed directly by liquid scintillation spectrometry while RBC and fecal samples were solubilized prior to counting. […] Metabolic profiling of urine was performed by HPLC radioactivity detection. Metabolites were identified by HPLC/photodiode array/mass spectrometry.
# P450 1A2 [2] = assay: in vitro; details: for 1-hydroxytacrine equivalents irreversibly bound to 1 mg microsomal protein: 1-hydroxytacrine 0.5 μM
# Procedure: (§1) PHARMACOL., Vol. 42, pp. 767-772 (1990) was conducted. […] The effect of various enoxacin concentrations (8, 20, and 50 μM) on the extent of irreversible binding was examined in a separate study.
# [3] = Clinical drug interaction study, tacrine with cimetidine; format: in vivo, human; details: 40 mg tacrine with 300-mg four times a day cimetidine vs tacrine alone
# From the text: A. Somogyi and M. Muirhead, "Pharmacokinetic Interactions of Cimetidine", CLIN. PHARMACOKIN., Vol. 12, pp. 321-366 (1987).
# [4] = Irreversible protein binding of 14C-tacrine-derived radioactivity, human liver microsomes; details: for effect on irreversible protein binding / Tacrine equivalents irreversibly bound to 1 mg microsomal protein: Human Prep B, 60 min; for Tacrine equivalents irreversibly bound to 1 mg microsomal protein: N = 3
# Procedure: (§2) Total reaction volume was 3 mL. Reactions were stopped by freezing in liquid nitrogen or dry-ice acetone. […] D. J. Waxman and L. Axaroff, "Phenobarbital induction of cytochrome P-450 Gene Expression", BIOCHEM J, Vol. 281, pp. 577-592 (1992); P. Soucek and I. Gut, supra.
# (§3) C. N. Martin and R. C. Garner: "Covalent Binding In Vitro and In Vivo" in BIOCHEMICAL TOXICOLOGY: A PRACTICAL APPROACH, Eds. K. Snell and B. Mullock, IRL, Wash. D.C. pp. 109-126 (1987).
# [5] = tested on: ethoxyresorufin O-deethylase; details: rat liver microsomes, Back et al. (1983); cited from earlier work
# P450 1A2 [6] = details: cited from earlier work
# P450 1A2 [7] = biological target: T1, P450 1A2; assay: in vitro
# Procedure: as §1
# [8] = tested on: hepatocytes from MC induced male rats; assay: Irreversible binding of 14C-tacrine and 14C-1-hydroxytacrine in MC induced rat hepatocytes; format: in vitro ADME; details: for inhibition of irreversible binding for both tacrine and 1-hydroxytacrine: relative ranking
# [9] = Irreversible protein binding of 14C-tacrine-derived radioactivity, rat liver microsomes; details: for effect on irreversible protein binding / Tacrine equivalents irreversibly bound to 1 mg microsomal protein: MC induced Rat, 60 min; for Tacrine equivalents irreversibly bound to 1 mg microsomal protein: N = 3; for effect of pretreatment on binding: rat
# Procedure: as §2, §3
# [10] = In vitro metabolism of 14C-tacrine in rat liver microsomes; details: microsomes from pretreated rats vs control
# Procedure: as §2
# P450 2D6 = details: cited from earlier work
# [11] = Clinical interaction, theophylline with tacrine; format: in vivo, human; details: single 158-mg theophylline with repeated 20-mg tacrine
# From the text: M. E. Campbell, D. M. Grant, T. Inaba, and W. Kalow, "Biotransformation of Caffeine, Paraxanthine, Theophylline, and Theobromine by polycyclic Aromatic Hydrocarbon-Inducible Cytochrome(s) P-450 in Human Liver Microsomes", DRUG METAB. DISPOS. Vol. 15, pp. 237-249 (1987). Therefore, a potential explanation for the theophylline-tacrine clinical interaction is competition for the same P450 1A2 enzymes.
# [12] = 20 min, read-out: inhibition of 1-hydroxytacrine irreversible binding
# [13] = 20 min, read-out: inhibition of tacrine irreversible binding
# [14] = 1-hydroxytacrine 10 uM + inhibitor 50 uM
# [15] = tacrine 10 uM + inhibitor 50 uM
molecule,measurement,setting,value
"Nc1c2c(nc3ccccc13)CCCC2O (stereo not shown) [1-Hydroxytacrine, 1-hydroxytacrine]","mean AUC(O-tldc), dose proportionality",[1],increased greater than dose proportionally
same,elimination rate from plasma,[1]; all volunteers,appeared to be limited by the rate of formation
same,excretion and 1-hydroxytacrine plasma concentrations in cigarette smokers,[1]; smokers compared to nonsmokers,decreased excretion and lower 1-hydroxytacrine plasma concentrations
same,irreversible binding to human microsomal protein,P450 1A2 [2]; 1-hydroxytacrine,found to bind irreversibly
same,1-hydroxytacrine equivalents irreversibly bound to 1 mg microsomal protein,"P450 1A2 [2]; enoxacin 0.0, 20 min",0.018 ± 0.001
same,irreversible binding of derived radioactivity to microsomal protein,"P450 1A2 [2]; Table 6, deletion of NADPH",no irreversible
same,higher plasma concentrations,[3],approximately 40%
Nc1c2c(nc3ccccc13)CCC(O)C2 (stereo not shown) [2-hydroxytacrine],"mean AUC(O-tldc), dose proportionality",[1],increased greater than dose proportionally
"Nc1c2c(nc3ccc(O)cc13)CCCC2 [7-Hydroxytacrine, 7-hydroxytacrine]",levels over time,[4]; time course through 1 hour,levels rise then fall over time
"CCN(CC)CCCC(C)Nc1ccnc2cc(Cl)ccc12 (stereo not shown) [Chloroquine, 7-chloro-4-(4-diethylamino-1-methylbutylamino)quinoline]",inhibition of ethoxyresorufin O-deethylase activity,[5],inhibitors of ethoxyresorufin O-deethylase activity
"CN/C(=N/CCSCc1nc[nH]c1C)NC#N [Cimetidine, N-cyano-N'-methyl-N""-[2[[(5-methyl-1H-imidazol-4-yl)methyl]thio]ethyl]guanidine]",inhibition of P450 enzymes including P450 1A2,P450 1A2 [6],inhibitor of P450 enzymes including P450 1A2
CCn1cc(C(=O)O)c(=O)c2cc(F)c(N3CCNCC3)nc21 [Enoxacin],P450 1A2 inhibition,P450 1A2 [6],selective inhibitor of P450 1A2
same,inhibition of tacrine irreversible binding and biotransformation,"P450 1A2 [7]; 50 μM enoxacin vs 8, 20 μM",greatest inhibition
same,inhibition at 8 µM,P450 1A2 [7]; [12],8.2%
same,inhibition at 20 µM,P450 1A2 [7]; [12],22.2%
same,inhibition at 50 µM,P450 1A2 [7]; [12],51.7%
same,inhibition at 8 µM,P450 1A2 [7]; [13],14.4%
same,inhibition at 20 µM,P450 1A2 [7]; [13],29.8%
same,inhibition at 50 µM,P450 1A2 [7]; [13],43.4%
same,effect on the binding of 1-hydroxytacrine,"P450 1A2 [7]; enoxacin 8, 20, 50 μM",inhibitory effect
same,inhibition at 50 µM,P450 1A2 [7]; read-out: inhibition of extent of irreversible binding (maximum),≤ 73%
same,1-hydroxytacrine equivalents irreversibly bound to 1 mg microsomal protein,"P450 1A2 [2]; enoxacin 8.0, 20 min",0.017 ± 0.001
same,1-hydroxytacrine equivalents irreversibly bound to 1 mg microsomal protein,"P450 1A2 [2]; enoxacin 20.0, 20 min",0.014 ± 0.001
same,1-hydroxytacrine equivalents irreversibly bound to 1 mg microsomal protein,"P450 1A2 [2]; enoxacin 50.0, 20 min",0.009 ± 0.001
same,Tacrine equivalents irreversibly bound to 1 mg microsomal protein,"P450 1A2 [2]; Table 6, tacrine 0.3 μM, line below enoxacin 50.0 (concentration not given), 20 min",0.023 ± 0.002
same,Tacrine equivalents irreversibly bound to 1 mg microsomal protein,"P450 1A2 [2]; Table 6, tacrine 0.3 μM, line of enoxacin 20.0, 20 min",0.036 ± 0.008
same,Tacrine equivalents irreversibly bound to 1 mg microsomal protein,"P450 1A2 [2]; Table 6, tacrine 0.3 μM, line of enoxacin 50.0, 20 min",0.028 ± 0.001
same,Tacrine equivalents irreversibly bound to 1 mg microsomal protein,"P450 1A2 [2]; tacrine 0.5 μM + enoxacin 50 μM, 5 min",0.009 ± 0.002 nmol
same,Tacrine equivalents irreversibly bound to 1 mg microsomal protein,"P450 1A2 [2]; tacrine 0.5 μM + enoxacin 50 μM, 10 min",0.017 ± 0.003 nmol
same,Tacrine equivalents irreversibly bound to 1 mg microsomal protein,"P450 1A2 [2]; tacrine 0.5 μM + enoxacin 50 μM, 20 min",0.026 ± 0.002 nmol
same,Tacrine equivalents irreversibly bound to 1 mg microsomal protein,"P450 1A2 [2]; tacrine 0.5 μM + enoxacin 50 μM, 45 min",0.052 ± 0.006 nmol
same,"irreversible binding of 1-hydroxytacrine-derived radioactivity, Percent Control Value",[8]; [14],79.8%
same,inhibition of irreversible binding for both tacrine and 1-hydroxytacrine,[8],less of an effect
same,"irreversible binding of tacrine-derived radioactivity, Percent Control Value",[8]; [15],78.9%
CCn1cnc(C(=O)NC)c1C(=O)NC [Ethimizol],"irreversible binding of 1-hydroxytacrine-derived radioactivity, Percent Control Value",[8]; [14],65.6%
same,inhibition of irreversible binding for both tacrine and 1-hydroxytacrine,[8],less of an effect
same,"irreversible binding of tacrine-derived radioactivity, Percent Control Value",[8]; [15],80.1%
"Cc1nc2c([nH]1)c(=O)n(C)c(=O)n2Cc1ccco1 [Furafylline, 1H-purine-2,6-dione, 3-(2-furanylmethyl)-3,7-dihydro-1,8-dimethyl]","irreversible binding of 1-hydroxytacrine-derived radioactivity, Percent Control Value",[8]; [14],31.7%
same,inhibition of irreversible binding for both tacrine and 1-hydroxytacrine,[8],most effective inhibitor
same,"irreversible binding of tacrine-derived radioactivity, Percent Control Value",[8]; [15],31.6%
N[C@@H](CCC(=O)N[C@@H](CS)C(=O)NCC(=O)O)C(=O)O [Glutathione],effect on irreversible protein binding,[9]; with GSH (5 mM),58.3
same,Tacrine equivalents irreversibly bound to 1 mg microsomal protein,[9]; with GSH (5 mM),0.058 ± 0.005 nmol
same,detectable adducts with the reactive intermediate,[4],failed to produce detectable adducts
same,effect on irreversible binding,[4],dramatic reduction in irreversible binding
same,effect on irreversible protein binding,[4]; with GSH (5 mM),85.0
same,Tacrine equivalents irreversibly bound to 1 mg microsomal protein,[4]; with GSH (5 mM),0.031 ± 0.001 nmol
same,"irreversible binding of 1-hydroxytacrine-derived radioactivity, Percent Control Value",[8]; 1-hydroxytacrine 10 uM + glutathione 5 mM,49.1%
same,"irreversible binding of tacrine-derived radioactivity, Percent Control Value",[8]; tacrine 10 uM + glutathione 5 mM,62.6%
NNC(=O)c1ccncc1 [Isoniazid],effect of pretreatment on binding,[9],little or no effect on binding
same,effect of pretreatment (induction) on 1-hydroxytacrine formation,[10],markedly increased 1-hydroxytacrine formation
"Cc1ccc2cc3c(ccc4ccccc43)c3c2c1CC3 [MC, 3-methylcholanthrene]",increase in binding compared to control rat,[9]; MC induced rat,~3 fold
same,effect of pretreatment (induction) on 1-hydroxytacrine formation,[10],Less 1-hydroxytacrine was observed
CCC1(c2ccccc2)C(=O)NC(=O)NC1=O [Phenobarbital],effect of pretreatment on binding,[9],little or no effect on binding
same,effect of pretreatment (induction) on 1-hydroxytacrine formation,[10],only a minimal effect on 1-hydroxytacrine formation
"COc1cc(NC(C)CCCN)c2ncccc2c1 (stereo not shown) [Primaquine, 8-(4-amino-1-methylbutylamino)-6-methoxyquinoline]",inhibition of ethoxyresorufin O-deethylase activity,[5],inhibitors of ethoxyresorufin O-deethylase activity
C=C[C@H]1C[N@@]2CC[C@H]1C[C@@H]2[C@@H](O)c1ccnc2ccc(OC)cc12 [Quinidine],P450 2D6 inhibition,P450 2D6,inhibitor of P450 2D6
Cn1c(=O)c2[nH]cnc2n(C)c1=O [Theophylline],major route of clearance,P450 1A2 [6],metabolism by P450 1A2
same,increase in theophylline elimination half-life,[11],two-fold
"EH: human liver expoxide hydrase (EH) (protein, UniProt P07099 1-455, looked up) Epoxide hydrolase 1: MWLEILLTSVLGFAIYWFISRDKEETLPLEDGWWGPGTRSAAREDDSIRPFKVETSDEEIHDLHQRIDKFRFTPPLEDSCFHYGFNSNYLKKVISYWRNEFDWKKQVEILNRYPHFKTKIEGLDIHFIHVKPPQLPAGHTPKPLLMVHGWPGSFYEFYKIIPLLTDPKNHGLSDEHVFEVICPSIPGYGFSEASSKKGFNSVATARIFYKLMLRLGFQEFYIQGGDWGSLICTNMAQLVPSHVKGLHLNMALVLSNFSTLTLLLGQRFGRFLGLTERDVELLYPVKEKVFYSLMRESGYMHIQCTKPDTVGSALNDSPVGLAAYILEKFSTWTNTEFRYLEDGGLERKFSLDDLLTNVMLYWTTGTIISSQRFYKENLGQGWMTQKHERMKVYVPTGFSAFPFELLHTPEKWVRFKYPKLISYSYMVRGGHFAAFEEPELLAQDIRKFLSVLERQ",effect on irreversible protein binding,[9]; with EH (100 ug),16.6
same,Tacrine equivalents irreversibly bound to 1 mg microsomal protein,[9]; with EH (100 ug),0.116 ± 0.007 nmol
same,detectable adducts with the reactive intermediate,[4],failed to produce detectable adducts
same,effect on irreversible binding,"[4]; 14C tacrine incubations (Table 3, human and rat)",only a slight decrease in binding
same,effect on irreversible protein binding,[4]; with EH (100 ug),35.3
same,Tacrine equivalents irreversibly bound to 1 mg microsomal protein,[4]; with EH (100 ug),0.134 ± 0.026 nmol
